Data published in patent US12180226B2, “Spirotricycle RIPK1 inhibitors and methods of uses thereof” (Merck Sharp & Dohme LLC, priority 2021, dated 2024).
Structures can show the parent of a compound that is named as a salt.

Each molecule was assayed against RIPK1 (recombinant GST-RIPK1 kinase domain, residues 1-327) (Homo sapiens (Human), UniProt Q13546) (assay: RIPK1-ADP-Glo Enzymatic Assay). Conditions: ADP-Glo; 25 nM GST-RIPK1, 300 μM ATP; assay lower limit ~25 nM; read-out: RIPK1 V0 Ec50.
Type: biochemical
Protocol: RIPK1-ADP-Glo Enzymatic Assay
The enzymatic activity of RIPK1 is measured using an assay derived from ADP-Glo kit (TMPromega), which provides a luminescent-based ADP detection system. Specifically, the ADP generated by RIPK1 kinase is proportionally detected as luminescent signals in a homogenous fashion. In this context, the assessment of the inhibitory effect of small molecules (EC50) is measured by the effectiveness of the compounds to inhibit the ATP to ADP conversion by RIPK1.
In this assay, the potency (EC50) of each compound was determined from a ten-point (1:3 serial dilution; top compound concentration of 100000 nM) titration curve using the following outlined procedure. The assay bottom or lower limit of confidence is ˜25 nM. To each well of a white ProxiPlus 384 well-plate, 30 nL of compound (1% DMSO in final assay volume of 3 μL) was dispensed, followed by the addition of 2 μL of 1×assay buffer (25 mM Hepes 7.3, 20 mM MgCl2, 50 mM NaCl, 1 mM DTT, 0.005% Tween20, and 0.02% BSA) containing 37.5 nM of GST-RIPK1 (recombinant GST-RIPK1 kinase domain (residues 1-327) enzyme produced from baculovirus-transfected Sf21 cells: MW=62 kDa). Plates were placed in an ambient temperature humidified chamber for a 30-minute pre-incubation with compound. Subsequently, each reaction was initiated by the addition of 1 μL 1×assay buffer containing 900 μM ATP and […] dephosphorylated-MBP substrate. The final reaction in each well of 3 μL consists of 25 nM of GST-RIPK1, 300 μM ATP, and 3 μM dephosphorylated-MBP. Kinase reactions were allowed to proceed for 150 minutes prior to adding ADP-Glo reagents per Promega's outlined kit protocol. Dose-response curves were generated by plotting percent effect (% product conversion; Y-axis) vs. Log10 compound concentrations (X-axis). EC50 values were calculated using a non-linear regression, four-parameters sigmoidal dose-response model.

Chain of RIPK1 (recombinant GST-RIPK1 kinase domain, residues 1-327) (Q13546 1-327): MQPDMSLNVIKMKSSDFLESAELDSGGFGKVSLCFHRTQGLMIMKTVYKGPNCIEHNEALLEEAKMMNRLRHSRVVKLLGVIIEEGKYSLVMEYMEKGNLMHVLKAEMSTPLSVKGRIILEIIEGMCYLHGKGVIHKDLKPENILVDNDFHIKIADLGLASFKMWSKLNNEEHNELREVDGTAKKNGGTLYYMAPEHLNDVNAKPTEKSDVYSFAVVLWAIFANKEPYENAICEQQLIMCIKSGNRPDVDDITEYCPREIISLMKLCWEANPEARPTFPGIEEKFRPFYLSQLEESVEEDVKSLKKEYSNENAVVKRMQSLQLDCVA

Structure (SMILES) | EC50
O=C1N2[C@@H](CC[C@H]2c2ccccc2)OC12CCN(c1cc(-c3ccc(F)cc3)c([N+](=O)[O-])cn1)CC2 [Example 4.208, (5′S,7a′R)-1-[4-(4-fluorophenyl)-5-nitropyridin-2-yl]-5′-phenyltetrahydro-3′H-spiro[piperidine-4,2′-pyrrolo[2,1-b] [1,3]oxazol]-3′-one] | 56 nM
COc1cccnc1C(=O)N1CCC2(CC1)O[C@@H]1CC[C@@H](c3cc(F)cc(F)c3)N1C2=O [Example 6.81, (5′S,7a′R)-5′-(3,5-difluorophenyl)-1-(3-methoxypyridine-2-carbonyl)tetrahydro-3′H-spiro[piperidine-4,2′-pyrrolo[2,1-b] [1,3]oxazol]-3′-one] | 935 nM
O=C(c1cnc(C(F)F)cn1)N1CCC2(CC1)O[C@@H]1CC[C@@H](c3cc(F)cc(F)c3)N1C2=O [Example 6.84, (5′S,7a′R)-1-[5-(difluoromethyl)pyr-azine-2-carbonyl]-5′-(3,5-difluorophenyl)-tetrahydro-3′H-spiro [piperidine-4,2′-pyrrolo[2,1-b][1,3]-oxazol]-3′-one] | 405 nM
O=C(c1cnnn1-c1cccnc1)N1CCC2(CC1)O[C@@H]1CC[C@@H](c3cc(F)cc(F)c3)N1C2=O [Example 6.30, (5′S,7a′R)-5′-(3,5-difluorophenyl)-1-[1-(pyridin-3-yl)-1H-1,2,3-triazole-5-car-bonyl]tetrahydro-3′H-spiro[piperidine-4,2′-pyrrolo[2,1-b][1,3]oxazol]-3′-one] | 208 nM
Cc1nc(N2CCC3(CC2)O[C@@H]2CC[C@@H](c4ccccc4)N2C3=O)ncc1-c1ncnn1C [Example 21.7, (5′S,7a′R)-1-[4-methyl-5-(1-methyl-1H-1,2,4-triazol-5-yl)pyrimidin-2-yl]-5′-phenyltetrahydro-3′H-spiro[piperidine-4,2′-pyrrolo[2,1-b][1,3]oxazol]-3′-one] | 181 nM
O=C(c1ccccc1)N1CCC2(CC1)O[C@@H]1CC[C@@H](c3cc(F)cc(F)c3)N1C2=O [Example 1.1, (5′S,7a′R)-1-Benzoyl-5′-(3,5-difluorophenyl)tetrahydro-3′H-spiro[piperidine-4,2′-pyrrolo[2,1-b]oxazol]-3′-one] | < 25 nM
Cc1nc(Cl)c(C)c(N2CCC3(CC2)O[C@@H]2CC[C@@H](c4ccccc4)N2C3=O)n1 [Example 4.22, (5′S,7a′R)-1-(6-chloro-2,5-dimethylpyrimidin-4-yl)-5′-phenyltetrahydro-3′H-spiro[piperidine-4,2′-pyrrolo[2,1-b] [1,3]oxazol]-3′-one] | 26.9 nM
O=C(c1ccccc1)N1CCC2(CC1)O[C@@H]1[C@@H](F)C[C@@H](c3ccccc3)N1C2=O [Example 6.108, (5′S,7′S,7a′R)-1-(benzenecarbonyl)-7′-fluoro-5′-phenyl-tetrahydro-3′H-spiro [piperidine-4,2′-pyrrolo[2,1-b][1,3]-oxazol]-3′-one] | 43.8 nM
O=C1N2[C@@H](CC[C@H]2c2cnccn2)OC12CCN(c1ccnc3c(F)cnn13)CC2 [Example 4.143, (5′S,7a′R)-1-(3-fluoropyrazolo[1,5-a]pyrimidin-7-yl)-5′-(pyrazin-2-yl)tetrahydro-3′H-spiro[piperidine-4,2′-pyrrolo[2,1-b] [1,3]oxazol]-3′-one] | < 25 nM
O=C(c1cccc(N2CCCC2)n1)N1CCC2(CC1)O[C@@H]1CC[C@@H](c3cc(F)cc(F)c3)N1C2=O [Example 6.96, (5′S,7a′R)-5′-(3,5-difluorophenyl)-1-[6-(pyrrolidin-1-yl)pyri-dine-2-carbonyl]tetra-hydro-3′H-spiro[piperi-dine-4,2′-pyrrolo[2,1-b][1,3]oxazol]-3′-one] | 31.6 nM
O=C1N2[C@@H](CC[C@H]2c2ccccc2)OC12CCN(c1ncnc3c(F)cnn13)CC2 [Example 4.233, (5′S,7a′R)-1-(8-fluoropyrazolo[1,5-a] [1,3,5]triazin-4-yl)-5′-phenyltetrahydro-3′H-spiro[piperidine-4,2′-pyrrolo[2,1-b] [1,3]oxazol]-3′-one] | < 25 nM
O=C1N2[C@@H](CC[C@H]2c2ccccc2)SC12CCN(c1ccnc3c(F)cnn13)CC2 [Example 4.132, (5′S,7a′R)-1-(3-fluoropyrazolo[1,5-a]pyrimidin-7-yl)-5′-phenyltetrahydro-3′H-spiro[piperidine-4,2′-pyrrolo[2,1-b]thiazol]-3′-one] | < 25 nM
O=C(c1ccccc1)N1C2CCC1CC1(C2)O[C@@H]2CC[C@@H](c3cc(F)cc(F)c3)N2C1=O (stereo partly drawn) [Example 6.134, (5′S,7a′R)-8-(benzene-carbonyl)-5′-(3,5-difluorophenyl)tetra-hydro-3′H-spiro[8-azabicyclo[3.2.1]-octane-3,2′-pyrrolo-[2,1-b][1,3]oxazol]-3′-one] | 92.4 nM
N#Cc1cccc(S(=O)(=O)N2CCC3(CC2)O[C@@H]2CC[C@@H](c4cc(F)cc(F)c4)N2C3=O)c1 [Example 8.3, 3-{[(5′S,7a′R)-5′-(3,5-difluorophenyl)-3′-oxotetrahydro-1H,3′H-spiro[piperidine-4,2′-pyrrolo[2,1-b][1,3]oxazol]-1-yl]sulfonyl]benzonitrile] | 213 nM
Cc1ncc([C@@H]2CC[C@H]3OC4(CCN(c5ccnc6c(F)cnn56)CC4F)C(=O)N32)cc1F (stereo partly drawn) [Example 4.131, (5′S,7a′R)-3-fluoro-5′-(5-fluoro-6-methylpyridin-3-yl)-1-(3-fluoropyrazolo[1,5-a]pyrimidin-7-yl)tetrahydro-3′H-spiro[piperidine-4,2′-pyrrolo[2,1-b] [1,3]oxazol]-3′-one] | 30.6 nM

Second part, the molecule after the results:

EC50 | Structure (SMILES)
< 25 nM | O=C(c1ccccc1F)N1CCC2(CC1)O[C@@H]1CC[C@@H](c3ccccc3)N1C2=O [Example 1.10, (5′S,7a′R)-1-(2-fluorobenzene-1-carbonyl)-5′-phenyltetrahydro-3′H-spiro[piperidine-4,2′-pyrrolo[2,1-b] [1,3]oxazol]-3′-one]
< 25 nM | N#Cc1ccc(N2CCC3(CC2)O[C@@H]2CC[C@@H](c4cc(F)cc(F)c4)N2C3=O)nc1 [Example 4.44, 6-[(5′S,7a′R)-5′-(3,5-difluorophenyl)-3′-oxotetrahydro-1H,3′H-spiro[piperidine-4,2′-pyrrolo[2,1-b] [1,3]oxazol]-1-yl]pyridine-3-carbonitrile]
< 25 nM | N#CC1(c2cccc(C(=O)N3CCC4(CC3)O[C@@H]3CC[C@@H](c5cc(F)cc(F)c5)N3C4=O)c2)CC1 [Example 6.71, 1-{3-[(5′S,7a′R)-5′-(3,5-difluorophenyl)-3′-oxotetrahydro-1H,3′H-spiro[piperi-dine-4,2′-pyrrolo-[2,1-b][1,3]oxazole]-1-carbonyl]phenyl} cyclopropane-1-car-bonitrile]
< 25 nM | O=C1N2[C@@H](CC[C@H]2c2ccccc2)OC12CCN(c1ncnc3ccnn13)CC2 [Example 4.93, (5′S,7a′R)-5′-phenyl-1-(pyrazolo[1,5-a] [1,3,5]triazin-4-yl)tetrahydro-3′H-spiro[piperidine-4,2′-pyrrolo[2,1-b]oxazol]-3′-one, TFA salt]
< 25 nM | O=C1N2[C@@H](CC[C@H]2c2cc(F)cc(F)c2)OC12CCN(c1ccc(Br)c3ccnn13)CC2 [Example 13.6, (5′S,7a′R)-1-(4-bromopyrazolo[1,5-a]pyridin-7-yl)-5′-(3,5-difluorophenyl)tetrahydro-3′H-spiro[piperidine-4,2′-pyrrolo[2,1-b]oxazol]-3′-one, TFA salt]
< 25 nM | O=C1N2[C@@H](CC[C@H]2c2ccccc2)OC12CCN(c1cc(-c3cnn(C(F)F)c3)ncn1)CC2 [Example 10.2, (5′S,7a′R)-1-{6-[1-(difluoromethyl)-1H-pyrazol-4-yl]pyrimidin-4-yl}-5′-phenyltetrahydro-3′H-spiro[piperidine-4,2′-pyrrolo[2,1-b][1,3]oxazol]-3′-one]
< 25 nM | O=C1N2[C@@H](CC[C@H]2c2ccccc2)OC12CCN(c1ncnc3c(I)cnn13)CC2 [Example 4.219, (5′S,7a′R)-1-(8-iodopyrazolo[1,5-a] [1,3,5]triazin-4-yl)-5′-phenyltetrahydro-3′H-spiro[piperidine-4,2′-pyrrolo[2,1-b] [1,3]oxazol]-3′-one]
< 25 nM | O=C1N2[C@@H](CC[C@H]2c2ccccc2)OC12CCN(c1ccc(-c3ncco3)c3ncnn13)CC2 [Example 4.180, (5′S,7a′R)-1-[8-(1,3-oxazol-2-yl)[1,2,4]triazolo[1,5-a]pyridin-5-yl]-5′-phenyltetrahydro-3′H-spiro[piperidine-4,2′-pyrrolo[2,1-b] [1,3]oxazol]-3′-one]
12 nM | COc1nc(N2CCC3(CC2)O[C@@H]2CC[C@@H](c4cc(F)cc(F)c4)N2C3=O)ncc1C#N [Example 4.38, 2-[(5′S,7a′R)-5′-(3,5-difluorophenyl)-3′-oxotetrahydro-1H,3′H-spiro[piperidine-4,2′-pyrrolo[2,1-b] [1,3]oxazol]-1-yl]-4-methoxypyrimidine-5-carbonitrile]
